Results taken from ChEMBL document CHEMBL4507256 (2021).

Columns and labels:
Conditions in all cases: Compound concentration 10.0 uM
[1] = biological target: P2Y receptor (Homo sapiens) (UniProt Q9H244+P51582+P47900+P41231+Q15391+Q15077+Q96G91+Q9BPV8); experiment: P2Y CEREP ligand profiling; type: protein assay
[2] = biological target: Neuropeptide Y receptor type 2 (Homo sapiens) (UniProt P49146); experiment: Y2 (h) CEREP ligand profiling
[3] = biological target: Calcium-activated potassium channel (Homo sapiens) (UniProt Q92952+Q9UGI6+Q12791+O15554+Q9H2S1+A8MYU2); experiment: SK+ channel CEREP ligand profiling; type: protein assay
[4] = biological target: D(1B) dopamine receptor (Homo sapiens) (UniProt P21918); experiment: D5 (h) CEREP ligand profiling
Sequence of D(1B) dopamine receptor (Homo sapiens) (P21918 whole entry): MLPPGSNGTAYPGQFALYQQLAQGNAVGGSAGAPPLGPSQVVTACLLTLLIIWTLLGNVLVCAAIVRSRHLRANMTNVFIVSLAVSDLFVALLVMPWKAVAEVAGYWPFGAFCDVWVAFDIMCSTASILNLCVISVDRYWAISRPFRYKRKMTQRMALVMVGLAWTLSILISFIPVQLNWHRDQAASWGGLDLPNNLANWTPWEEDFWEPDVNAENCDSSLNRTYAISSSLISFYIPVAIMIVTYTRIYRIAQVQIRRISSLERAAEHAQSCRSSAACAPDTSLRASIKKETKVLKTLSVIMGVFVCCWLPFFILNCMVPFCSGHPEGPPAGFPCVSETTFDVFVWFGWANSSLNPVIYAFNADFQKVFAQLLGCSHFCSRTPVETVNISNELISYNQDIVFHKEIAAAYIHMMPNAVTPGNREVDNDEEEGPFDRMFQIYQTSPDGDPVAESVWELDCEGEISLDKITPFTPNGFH

[5] = biological target: T1, 5-hydroxytryptamine receptor 3A (Homo sapiens) (UniProt P46098); experiment: 5-HT3 (h) CEREP ligand profiling
T1 sequence (whole entry): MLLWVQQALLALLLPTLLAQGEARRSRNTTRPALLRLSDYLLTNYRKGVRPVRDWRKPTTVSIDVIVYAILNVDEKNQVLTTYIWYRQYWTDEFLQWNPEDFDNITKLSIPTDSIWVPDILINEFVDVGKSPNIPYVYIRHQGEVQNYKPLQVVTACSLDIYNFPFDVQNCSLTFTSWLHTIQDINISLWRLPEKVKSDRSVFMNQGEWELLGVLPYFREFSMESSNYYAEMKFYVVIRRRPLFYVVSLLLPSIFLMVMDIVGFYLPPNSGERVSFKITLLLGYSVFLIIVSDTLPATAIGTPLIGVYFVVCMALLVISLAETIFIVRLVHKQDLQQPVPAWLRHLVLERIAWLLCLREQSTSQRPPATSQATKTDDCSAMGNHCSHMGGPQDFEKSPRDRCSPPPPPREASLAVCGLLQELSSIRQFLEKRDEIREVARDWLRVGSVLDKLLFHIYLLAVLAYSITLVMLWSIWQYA

[6] = biological target: 5-hydroxytryptamine receptor 1B (Homo sapiens) (UniProt P28222); experiment: 5-HT1B CEREP ligand profiling
Sequence of 5-hydroxytryptamine receptor 1B (Homo sapiens) (P28222 whole entry): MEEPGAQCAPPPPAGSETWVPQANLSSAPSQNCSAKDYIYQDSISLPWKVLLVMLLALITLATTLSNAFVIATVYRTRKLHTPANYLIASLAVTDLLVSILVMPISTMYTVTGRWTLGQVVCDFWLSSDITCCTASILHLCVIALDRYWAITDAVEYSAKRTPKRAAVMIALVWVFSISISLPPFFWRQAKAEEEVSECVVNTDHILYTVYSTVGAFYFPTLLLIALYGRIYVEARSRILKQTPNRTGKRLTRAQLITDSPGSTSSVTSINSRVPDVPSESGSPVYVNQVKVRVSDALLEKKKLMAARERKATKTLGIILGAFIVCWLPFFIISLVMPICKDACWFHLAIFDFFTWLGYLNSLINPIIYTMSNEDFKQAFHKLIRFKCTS

[7] = biological target: Bombesin receptor (Homo sapiens) (UniProt P28336+P32247+P30550); experiment: BB (non-select) CEREP ligand profiling; type: protein assay
Sequence of Bombesin receptor (Homo sapiens) (P28336 whole entry, looked up): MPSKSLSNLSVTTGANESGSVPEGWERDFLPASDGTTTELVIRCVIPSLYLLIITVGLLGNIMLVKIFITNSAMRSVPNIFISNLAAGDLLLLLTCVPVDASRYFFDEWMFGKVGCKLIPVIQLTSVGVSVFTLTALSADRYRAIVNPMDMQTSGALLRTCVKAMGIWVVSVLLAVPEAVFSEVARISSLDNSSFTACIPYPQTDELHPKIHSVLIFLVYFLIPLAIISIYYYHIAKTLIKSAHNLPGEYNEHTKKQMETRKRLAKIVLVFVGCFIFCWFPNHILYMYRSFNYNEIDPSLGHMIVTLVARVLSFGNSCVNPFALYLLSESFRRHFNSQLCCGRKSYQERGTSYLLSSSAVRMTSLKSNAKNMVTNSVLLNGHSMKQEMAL
Sequence of Bombesin receptor (Homo sapiens) (P30550 whole entry, looked up): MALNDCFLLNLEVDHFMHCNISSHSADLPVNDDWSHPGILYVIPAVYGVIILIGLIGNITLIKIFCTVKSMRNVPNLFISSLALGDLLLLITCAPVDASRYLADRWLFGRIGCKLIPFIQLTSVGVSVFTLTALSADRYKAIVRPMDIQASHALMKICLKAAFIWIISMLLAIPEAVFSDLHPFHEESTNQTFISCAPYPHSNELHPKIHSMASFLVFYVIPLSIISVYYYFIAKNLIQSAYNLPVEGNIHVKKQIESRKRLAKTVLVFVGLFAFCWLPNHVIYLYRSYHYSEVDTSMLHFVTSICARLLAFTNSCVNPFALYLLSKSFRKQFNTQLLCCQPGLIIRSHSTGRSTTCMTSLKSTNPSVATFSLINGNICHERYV
Sequence of Bombesin receptor (Homo sapiens) (P32247 whole entry, looked up): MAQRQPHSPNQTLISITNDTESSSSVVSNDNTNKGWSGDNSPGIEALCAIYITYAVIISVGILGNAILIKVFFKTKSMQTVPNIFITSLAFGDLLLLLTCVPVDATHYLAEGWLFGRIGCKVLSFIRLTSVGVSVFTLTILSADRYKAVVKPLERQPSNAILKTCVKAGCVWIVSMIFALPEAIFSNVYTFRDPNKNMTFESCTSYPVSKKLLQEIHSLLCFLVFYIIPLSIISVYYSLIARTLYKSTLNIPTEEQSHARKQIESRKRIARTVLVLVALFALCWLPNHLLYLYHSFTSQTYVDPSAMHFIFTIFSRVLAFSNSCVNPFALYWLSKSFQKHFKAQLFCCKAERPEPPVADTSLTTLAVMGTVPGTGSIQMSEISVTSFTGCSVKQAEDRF

[8] = biological target: Translocator protein (Rattus norvegicus) (UniProt P16257); experiment: BZD-peripheral CEREP ligand profiling
Sequence of Translocator protein (Rattus norvegicus) (P16257 whole entry, looked up): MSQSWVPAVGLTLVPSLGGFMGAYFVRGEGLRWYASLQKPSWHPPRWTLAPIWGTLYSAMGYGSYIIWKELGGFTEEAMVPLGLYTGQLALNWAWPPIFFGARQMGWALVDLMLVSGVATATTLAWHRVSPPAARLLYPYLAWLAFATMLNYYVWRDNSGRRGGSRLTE

Measured: inhibition

Sequence of Neuropeptide Y receptor type 2 (Homo sapiens) (P49146 whole entry): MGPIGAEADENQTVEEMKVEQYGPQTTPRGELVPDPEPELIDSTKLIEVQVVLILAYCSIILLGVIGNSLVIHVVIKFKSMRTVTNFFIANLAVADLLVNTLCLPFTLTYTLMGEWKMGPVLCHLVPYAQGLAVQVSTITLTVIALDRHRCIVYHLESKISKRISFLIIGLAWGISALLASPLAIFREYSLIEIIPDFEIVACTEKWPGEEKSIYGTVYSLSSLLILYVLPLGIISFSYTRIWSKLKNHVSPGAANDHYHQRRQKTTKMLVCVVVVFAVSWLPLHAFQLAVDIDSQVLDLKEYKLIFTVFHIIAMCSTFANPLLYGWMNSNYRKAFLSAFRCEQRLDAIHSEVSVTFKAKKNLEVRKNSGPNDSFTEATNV

CCC(=N\O)/C(C)=C/c1ccc(F)cc1 [A-079]
inactive: [1] 7% | [2] 13% | [3] -5% | [4] -8% | [5] 0% | [6] 14% | [7] -3% | [8] 6%
